{"source": "patent US10500218B2", "about": "“Uptake of pharmaceuticals within cyclodextrin-based porous materials” (Northwestern University, priority 2015, dated 2019)", "key": {"[1]": {"tested_on": "MDA-MB-231 (human breast adenocarcinoma)", "test": "Growth inhibition / cell viability (Cell Titer-Glo) on MDA-MB-231 cells", "format": "cell-based", "conditions": "48 hours, tested up to 100 μM", "description": "(§1) Toxicity studies of both CD-MOF-1 and ibuprofen were carried out in vitro on two cell lines: MCF-10A (human mammary epithelial cells) (FIG. 4A) and MDA-MB-231 (human breast adenocarcinoma) (FIG. 4B). For both cell lines, no IC50 value could be obtained for CD-MOF-1, and ibuprofen up to concentrations of 100 μM.\n(§2) Cell Studies. For cell studies, CD-MOF-1 was solubilized in H2O and the free-acid of ibuprofen was solubilized in Me2SO. The growth inhibition of various cell lines was determined according to the protocols from the NCl/NIH Developmental Therapeutics Program, and in collaboration with the Northwestern University Developmental Therapeutics Core Facility. Cells were plated in triplicate in 96 well plates. The cells were plated at densities of 10,000 per well in 90 μL for MDA-MB-231; and 25,000 per well in 90 μL for MCF-10A. The MDA-MB-231 cells were cultured in RPMI1640 media supplemented with 10% Fetal Bovine Serum (FBS), and 2 mM glutamine with 5% CO2 at 37° C. For experiments, 5% of FBS and 50 μg/mL of gentamycin were used. […]\n(§3) Time zero cells (Tz) were processed according to the Promega Cell Titer Glo, and the following day Cell Titer-Glo Luminescent Cell Viability Assay. […] The plates were shaken for 2 min and allowed to sit for activation prior to reading for 10 min. Plates were read on a BioTek reader using the luminescence program."}, "[2]": {"tested_on": "MCF-10A (human mammary epithelial cells)", "test": "Growth inhibition / cell viability (Cell Titer-Glo) on MCF-10A cells", "format": "cell-based", "conditions": "48 hours, tested up to 100 μM", "description": "as §1, §2, §3"}, "[3]": {"test": "Storage under ambient conditions: hygroscopicity and crystallinity (PXRD)", "format": "physicochemical", "conditions": "atmospheric / ambient conditions, several months for the CD-MOF-1 formulation", "description": "FIG. 3A depicts powder X-ray diffraction (PXRD) of freshly prepared CD-MOF-1 formulations of ibuprofen prepared by co-crystallization from the potassium salt of ibuprofen and adsorption of the deprotonated acid form of ibuprofen within a pre-existing CD-MOF-1, compared to the predicted I432 diffraction pattern.\nThree formulations were tested: ibuprofen, potassium salt, and a physical mixture of 23 wt. % ibuprofen, potassium salt with γ-CD (which is analogous to a stoichiometric loading of ibuprofen within CD-MOF-1 created by co-crystallization) were used as control samples, and the third formulation contained CD-MOF-1 loaded with 26 wt. % ibuprofen by the adsorption protocol. The potassium salt of ibuprofen was considered to be the most appropriate control form of ibuprofen in this study, as the results of the solvent-dependent adsorption loading of ibuprofen is evidence that an anion exchange process was occurring within CD-MOf-1, i.e., deprotonation of the free-acid form of ibuprofen, which was facilitated by water-miscible polar solvents. […] It is used, however, in rapid release gelatin capsules."}}}
{"smiles": "CC(C)Cc1ccc(C(C)C(=O)O)cc1", "note": "(racemic) [ibuprofen]", "values": [{"measurement": "IC50", "setting": "[1]", "value": "> 100", "unit": "µM"}, {"measurement": "IC50", "setting": "[2]", "value": "> 100", "unit": "µM"}]}
{"smiles": "CC(C)Cc1ccc(C(C)C(=O)[O-])cc1.[K+]", "note": "(stereo not drawn) [potassium salt of ibuprofen, ibuprofen, potassium salt]", "values": [{"measurement": "hygroscopicity", "setting": "[3]", "value": "very hygroscopic"}]}
